Data from patent publication US20090227533A1, “miR-34 Regulated Genes and Pathways as Targets for Therapeutic Intervention” (priority 2007, published 2009).

How the values were obtained:
H226 cells = test: Alamar Blue proliferation assay, lung cancer cells (electroporation); type: cell-based, human; conditions: normalized to NC (100%)
Text: (§1) The inventors assessed the therapeutic effect of hsa-miR-34a for lung cancer by using eight individual lung cancer cell lines. To measure cellular proliferation of lung cancer cells, the following non-small cell lung cancer (NSCLC) cells were used: cells derived from lung adenocarcinoma (A549, H522, Calu-3, HCC2935), cells derived from lung squamous cell carcinoma (H226), cell derived from lung adenosquamous cell carcinoma (H596), cells derived from lung bronchioalveolar carcinoma (H1650), and cells derived from lung large cell carcinoma (H460). Synthetic hsa-miR-34a (Pre-miR™-hsa-miR-34a, Ambion cat. no. AM17100) or negative control (NC) miRNA (Pre-miR™ microRNA Precursor Molecule-Negative Control #2; Ambion cat. no. AM17111) was delivered via lipid-based transfection into A549, H522, H596, Calu-3, HCC2935, H1650, H460 cells and via electroporation into H226 cells.
Lipid-based reverse transfections were carried out in triplicate according to a published protocol (Ovcharenko et al., 2005) and the following parameters: cells (5,000-12,000 per 96 well), 0.1-0.2 μl Lipofectamine™ 2000 (cat. no. 11668-019, Invitrogen Corp., Carlsbad, Calif., USA) in 20 μl OptiMEM (Invitrogen), 30 nM final concentration of miRNA in 100 μl. Electroporation of H226 cells was carried out using the BioRad Gene Pulser Xcell™ instrument (BioRad Laboratories Inc., Hercules, Calif., USA) with the following settings: 5×10^6 cells with 5 μg miRNA in 200 μl OptiMEM (1.6 μM miRNA), square wave pulse at 250 V for 5 ms. Electroporated H226 cells were seeded at 7,000 cells per 96-well in a total volume of 100 μl. All cells except for Calu-3 cells were harvested 72 hours post transfection or electroporation for assessment of cellular proliferation. Calu-3 cells were harvested 10 days post transfection. Proliferation assays were performed using Alamar Blue (Invitrogen) following the manufacturer's instructions. As a control for inhibition of cellular proliferation, siRNA against the motor protein kinesin 11, also known as Eg5, was used. […]

Calu-3 cells = test: Alamar Blue proliferation assay, lung cancer cells; type: cell-based, human; conditions: Calu-3, normalized to NC (100%)
Text: as §1
(§2) Lipid-based reverse transfections were carried out in triplicate according to a published protocol (Ovcharenko et al., 2005) and the following parameters: cells (5,000-12,000 per 96 well), 0.1-0.2 μl Lipofectamine™ 2000 (cat. no. 11668-019, Invitrogen Corp., Carlsbad, Calif., USA) in 20 μl OptiMEM (Invitrogen), 30 nM final concentration of miRNA in 100 μl. Electroporation of H226 cells was carried out using the BioRad Gene Pulser Xcell™ instrument (BioRad Laboratories Inc., Hercules, Calif., USA) with the following settings: 5×10^6 cells with 5 μg miRNA in 200 μl OptiMEM (1.6 μM miRNA), square wave pulse at 250 V for 5 ms. Electroporated H226 cells were seeded at 7,000 cells per 96-well in a total volume of 100 μl. All cells except for Calu-3 cells were harvested 72 hours post transfection or electroporation for assessment of cellular proliferation. Calu-3 cells were harvested 10 days post transfection. Proliferation assays were performed using Alamar Blue (Invitrogen) following the manufacturer's instructions. As a control for inhibition of cellular proliferation, siRNA against the motor protein kinesin 11, also known as Eg5, was used. Eg5 is essential for cellular survival of most eukaryotic cells and a lack thereof leads to reduced cell proliferation and cell death (Weil et al., 2002). siEg5 was used in lipid-based transfection following the same experimental parameters that apply to miRNA. The inventors also used a DNA topoisomerase II inhibitor, etoposide, at a final concentration of 10 μM and 50 μM as an internal standard for the potency of miRNAs. Etoposide is an FDA-approved DNA topoisomerase II inhibitor in the treatment of lung cancer. […] Percent (%) proliferation values from the Alamar Blue assay were normalized to values from cells treated with negative control miRNA. Percent proliferation of hsa-miR-34a treated cells relative to cells treated with negative control miRNA (100%) is shown in Table 7 and in FIG. 1.

H522 cells = test: Alamar Blue proliferation assay, lung cancer cells; type: cell-based, human; conditions: normalized to NC (100%)
Text: as §1, §2

H460 cells = test: Alamar Blue proliferation assay, lung cancer cells; type: cell-based, human; conditions: normalized to NC (100%)
Text: as §1, §2

A549 cells = test: Alamar Blue proliferation assay, lung cancer cells; type: cell-based, human; conditions: normalized to NC (100%)
Text: as §1, §2

H596 cells = test: Alamar Blue proliferation assay, lung cancer cells; type: cell-based, human; conditions: normalized to NC (100%)
Text: as §1, §2

H1650 cells = test: Alamar Blue proliferation assay, lung cancer cells; type: cell-based, human; conditions: normalized to NC (100%)
Text: as §1, §2

SCLC and NSCLC cells = conditions: various lung cancer cells (Tsai et al., 1993; Ohsaki et al., 1992); cited from earlier work
H460 lung cancer cells = test: Alamar Blue proliferation assay with pair-wise miRNA combinations; type: cell-based, human; conditions: normalized to 600 pM negative control miRNA
Text: miRNAs function in multiple pathways controlling multiple cellular processes. Cancer cells frequently show aberrations in several different pathways, which determine their oncogenic properties. […] The inventors assessed the efficacy of pair-wise miRNA combinations, administering hsa-miR-34a concurrently with either hsa-miR-124a, hsa-miR-126, hsa-miR-147, hsa-let-7b, hsa-let-7c or hsa-let-7g (Pre-miR™ miRNA, Ambion cat. no. AM17100). H460 lung cancer cells were transiently reverse-transfected in triplicate with each miRNA at a final concentration of 300 pM, resulting in 600 pM of total oligonucleotide. For negative controls, 600 pM of Pre-miR™ microRNA Precursor Molecule-Negative Control #2 (Ambion cat. no. AM17111) were used. To correlate the effect of various combinations with the effect of the sole miRNA, each miRNA at 300 pM was also combined with 300 pM negative control miRNA. Reverse transfection was carried out using the following parameters: 7,000 cells per 96 well, 0.15 μl Lipofectamine™ 2000 (Invitrogen) in 20 μl OptiMEM (Invitrogen), 100 μl total transfection volume. […] Cells were harvested 72 hours after transfection and subjected to Alamar Blue assays (Invitrogen). Percent proliferation values from the Alamar Blue assays were normalized to those obtained from cells treated with 600 pM negative control miRNA. Data are expressed as % proliferation relative to negative control miRNA-treated cells (Table 8, FIG. 3).
Additive activity of pair-wise combinations (e.g., hsa-miR-34a plus hsa-miR-147) is defined as an activity that is greater than the sole activity of each miRNA (e.g., the activity of hsa-miR-34a plus hsa-miR-147 is greater than that observed for hsa-miR-34a plus NC and the activity of hsa-miR-34a plus hsa-miR-147 is greater than that observed for hsa-miR-147 plus NC). Synergistic activity of pair-wise combinations is defined as an activity that is greater than the sum of the sole activity of each miRNA (e.g., the activity of hsa-miR-34a plus hsa-let-7g is greater than that observed for the sum of the activity of hsa-miR-34a plus NC and the activity of hsa-let-7g plus NC). […] The combinatorial use of miRNAs represents a potentially useful therapy for cancer and other diseases.

COc1cc([C@@H]2c3cc4c(cc3[C@@H](O[C@@H]3O[C@@H]5CO[C@@H](C)O[C@H]5[C@H](O)[C@H]3O)[C@H]3COC(=O)[C@H]23)OCO4)cc(OC)c1O [Etoposide, etoposide]
% proliferation (H226 cells; etoposide 10 μM): 28.17%
% proliferation (H226 cells; etoposide 50 μM): 9.33%
% proliferation (Calu-3 cells; etoposide 10 μM): 20.81%
% proliferation (Calu-3 cells; etoposide 50 μM): 13.53%
% proliferation (H522 cells; etoposide 10 μM): 82.13%
% proliferation (H522 cells; etoposide 50 μM): 61.08%
% proliferation (H460 cells; etoposide 10 μM): 32.13%
% proliferation (H460 cells; etoposide 50 μM): 27.82%
% proliferation (A549 cells; etoposide 10 μM): 49.13%
% proliferation (A549 cells; etoposide 50 μM): 42.18%
% proliferation (H596 cells; etoposide 10 μM): 88.75%
% proliferation (H596 cells; etoposide 50 μM): 73.39%
% proliferation (H1650 cells; etoposide 10 μM): 90.98%
% proliferation (H1650 cells; etoposide 50 μM): 60.31%
IC50 (SCLC and NSCLC cells): 1 to 25 µM
% proliferation (H460 lung cancer cells; etoposide 10 μM): 20.19%
% proliferation (H460 lung cancer cells; etoposide 50 μM): 14.94%
